Assay results published in patent US8455688B2, “HDAC inhibitors” (Lixte Biotechnology, Inc., priority 2007, dated 2013).
Converted amounts (≈) assume the structure as drawn. Where two headings read alike, the source gives them in different places.

What was measured:
CP Control = test: Broth dilution antifungal susceptibility testing, CP Control; format: cell-based; details: read-out: minimum inhibitory concentration (MIC)
Procedure: (§1) A total of 23 isolates were tested to include 3 Candida albicans, 3 Candida glabrata, 3 Cryptococcus neoformans, 3 Aspergillus fumigatus, 3 Rhizopus oryzae, 3, Fusarium solani, 3 Pseudallescheria boydii, and 2 […]. All isolates were clinical isolates submitted to the Fungus Testing Laboratory for evaluation. Antifungal susceptibility testing was accomplished according to the methods outlined in the National Committee for Clinical Laboratory Standards, M-27A2, Reference Method for Broth Dilution Antifungal Susceptibility Testing of Yeasts; Approved Standard, and M38-A “Reference Method for Broth Dilution Antifungal Susceptibility Testing of Conidium-Forming Filamentous Fungi; Approved Standard”. This includes testing in RPMI-1640 with glutamine and without bicarbonate, an inoculum size of 0.5-2.5×10^3 for yeasts or […] for moulds, and incubation at 35° C. for 24 and 48 hours. […] Drug concentrations were 0.125-64 μg/ml. A 10 mg portion of each powder was weighed out and added to 1 ml of 100% DMSO for compound 205. The resulting concentration of […] was diluted to a working concentration of 6400 μg/ml for compound 205 in 100% DMSO. All subsequent dilutions were also made using the respective diluents. Final testing concentrations ranged from 0.125-64 μg/ml. The NCCLS recommended medium RPMI-1640 (Hardy Diagnostics, Santa Monica, Calif.) was utilized as the test medium. All isolates in this study were clinical isolates received in the Fungus Testing Laboratory for standard antifungal susceptibility testing and/or identification. Isolates, which were not sent for identification, were confirmed to assure testing integrity. A total of 23 were tested to include 3 Candida albicans, 3 Candida glabrata, 3 Cryptococcus neoformans, 3 Aspergillus fumigatus, 3 Rhizopus oryzae, 3, Fusarium solani, 3 Pseudallescheria boydii, and 2 […]. Minimum inhibitory concentrations (MIC) were determined at the first 24-hour interval where growth could be determined in the drug-free control tube.

C. albicans = test: Broth dilution antifungal susceptibility testing, C. albicans; format: cell-based, Candida albicans; details: 50% reduction in turbidity; for MIC: Candida albicans, read-out: minimum inhibitory concentration (MIC)
Procedure: as §1

C. glabrata = test: Broth dilution antifungal susceptibility testing, C. glabrata; format: cell-based, Candida glabrata; details: 50% reduction in turbidity; for MIC: Nakaseomyces glabratus, read-out: minimum inhibitory concentration (MIC)
Procedure: as §1

C. neoformans = test: Broth dilution antifungal susceptibility testing, C. neoformans; format: cell-based; details: Cryptococcus neoformans, 50% reduction in turbidity, read-out: minimum inhibitory concentration (MIC)
Procedure: as §1

R. arrhizus = test: Broth dilution antifungal susceptibility testing, R. arrhizus; format: cell-based, Rhizopus oryzae; details: 80% inhibition; for MIC: Rhizopus arrhizus, read-out: minimum inhibitory concentration (MIC)
Procedure: as §1

F. solani = test: Broth dilution antifungal susceptibility testing, F. solani; format: cell-based; details: Fusarium solani, 48 h, 48 hours, 80% inhibition, read-out: minimum inhibitory concentration (MIC)
Procedure: as §1

S. apiospermum = test: Broth dilution antifungal susceptibility testing, S. apiospermum; format: cell-based, Pseudallescheria boydii; details: 80% inhibition; for MIC: Scedosporium apiospermum, read-out: minimum inhibitory concentration (MIC)
Procedure: as §1

A. fumigatus = test: Broth dilution antifungal susceptibility testing, A. fumigatus; format: cell-based, Aspergillus fumigatus; details: 80% inhibition; for MIC: Aspergillus fumigatus, read-out: minimum inhibitory concentration (MIC)
Procedure: as §1

T. rubrum = test: Broth dilution antifungal susceptibility testing, T. rubrum; format: cell-based, Trichophyton rubrum; details: 80% inhibition; for MIC: Trichophyton rubrum, read-out: minimum inhibitory concentration (MIC)
Procedure: as §1

cell line U-87 = test: Activity against the cell line U-87; format: cell-based, human; details: potency on an equimolar basis

Q: What does the source list for `O=C(CCCCCNC(=O)c1ccccc1S)Nc1ccccc1` [Compound 201, 2-mercapto-N-[5-(phenylcarbamoyl)pentyl]benzamide]?
A: MIC (CP Control; 24 hours): 8 µg/mL (≈ 23.4 µM); MIC (CP Control; 48 hours): > 64 µg/mL; MIC (C. albicans; 24 h, isolate 07-3006, 24 hours): 8 µg/mL (≈ 23.4 µM); MIC (C. albicans; 24 h, isolate 07-3011, 24 hours): 4 µg/mL (≈ 11.7 µM); MIC (C. albicans; 24 h, isolate 07-3012, 24 hours): 4 µg/mL (≈ 11.7 µM); MIC (C. albicans; 48 h, isolate 07-3006, 48 hours): > 64 µg/mL; MIC (C. albicans; 48 h, isolate 07-3011, 48 hours): > 64 µg/mL; MIC (C. albicans; 48 h, isolate 07-3012, 48 hours): > 64 µg/mL; minimum inhibitory concentration (MIC) (C. albicans; isolate 07-3006, 24 hours): 4 µg/mL (≈ 11.7 µM); minimum inhibitory concentration (MIC) (C. albicans; isolate 07-3011, 24 hours): 8 µg/mL (≈ 23.4 µM); minimum inhibitory concentration (MIC) (C. albicans; isolate 07-3012, 24 hours): 8 µg/mL (≈ 23.4 µM); MIC (C. glabrata; 24 h, isolate 07-2964, 24 hours): 2 µg/mL (≈ 5.84 µM); MIC (C. glabrata; 24 h, isolate 07-2965, 24 hours): 1 µg/mL (≈ 2.92 µM); MIC (C. glabrata; 24 h, isolate 07-3013, 24 hours): 2 µg/mL (≈ 5.84 µM); MIC (C. glabrata; 48 h, isolate 07-2964, 48 hours): > 64 µg/mL; MIC (C. glabrata; 48 h, isolate 07-2965, 48 hours): > 64 µg/mL; MIC (C. glabrata; 48 h, isolate 07-3013, 48 hours): > 64 µg/mL; minimum inhibitory concentration (MIC) (C. glabrata; isolate 07-2964, 24 hours): 4 µg/mL (≈ 11.7 µM); minimum inhibitory concentration (MIC) (C. glabrata; isolate 07-2965, 24 hours): 2 µg/mL (≈ 5.84 µM); MIC (C. neoformans; 24 h, isolate 07-2665, 24 hours): 2 µg/mL (≈ 5.84 µM); MIC (C. neoformans; 24 h, isolate 07-2737, 24 hours): 2 µg/mL (≈ 5.84 µM); MIC (C. neoformans; 24 h, isolate 07-2829, 24 hours): 2 µg/mL (≈ 5.84 µM); MIC (C. neoformans; 48 h, isolate 07-2737, 48 hours): 4 µg/mL (≈ 11.7 µM); MIC (C. neoformans; 48 h, isolate 07-2829, 48 hours): 2 µg/mL (≈ 5.84 µM); MIC (R. arrhizus; 24 h, isolate 07-2044, 24 hours): 8 µg/mL (≈ 23.4 µM); MIC (R. arrhizus; 24 h, isolate 07-2078, 24 hours): > 64 µg/mL; MIC (R. arrhizus; 48 h, isolate 07-2044, 48 hours): > 64 µg/mL; MIC (R. arrhizus; 48 h, isolate 07-2078, 48 hours): > 64 µg/mL; minimum inhibitory concentration (MIC) (R. arrhizus; isolate 07-2044, 24 hours): 4 µg/mL (≈ 11.7 µM); MIC (F. solani; isolate 07-1755): > 64 µg/mL; MIC (F. solani; isolate 07-1867): > 64 µg/mL; MIC (S. apiospermum; 24 h, isolate 07-1333, 24 hours): 1 µg/mL (≈ 2.92 µM); MIC (S. apiospermum; 24 h, isolate 07-1502, 24 hours): 2 µg/mL (≈ 5.84 µM); MIC (S. apiospermum; 48 h, isolate 07-1333, 48 hours): 1 µg/mL (≈ 2.92 µM); MIC (S. apiospermum; 48 h, isolate 07-1502, 48 hours): 4 µg/mL (≈ 11.7 µM); minimum inhibitory concentration (MIC) (S. apiospermum; isolate 07-1333, 24 hours): 2 µg/mL (≈ 5.84 µM); minimum inhibitory concentration (MIC) (S. apiospermum; isolate 07-1333, 48 hours): 2 µg/mL (≈ 5.84 µM); minimum inhibitory concentration (MIC) (S. apiospermum; isolate 07-1502, 48 hours): 2 µg/mL (≈ 5.84 µM); MIC (A. fumigatus; 24 h, isolate 05-388, 24 hours): 1 µg/mL (≈ 2.92 µM); MIC (A. fumigatus; 24 h, isolate 06-4126, 24 hours): 0.5 µg/mL (≈ 1.46 µM); MIC (A. fumigatus; 24 h, isolate 07-2039, 24 hours): 1 µg/mL (≈ 2.92 µM); MIC (A. fumigatus; 48 h, isolate 05-388, 48 hours): > 64 µg/mL; MIC (A. fumigatus; 48 h, isolate 07-2039, 48 hours): > 64 µg/mL; minimum inhibitory concentration (MIC) (A. fumigatus; isolate 06-4126, 24 hours): 1 µg/mL (≈ 2.92 µM); MIC (T. rubrum; 24 h, isolate 07-1743, 24 hours): 2 µg/mL (≈ 5.84 µM); MIC (T. rubrum; 24 h, isolate 07-2055, 24 hours): 2 µg/mL (≈ 5.84 µM); MIC (T. rubrum; 48 h, isolate 07-1743, 48 hours): 2 µg/mL (≈ 5.84 µM); MIC (T. rubrum; 48 h, isolate 07-2055, 48 hours): 2 µg/mL (≈ 5.84 µM); minimum inhibitory concentration (MIC) (T. rubrum; isolate 07-1743, 24 hours): 1 µg/mL (≈ 2.92 µM); minimum inhibitory concentration (MIC) (T. rubrum; isolate 07-1743, 48 hours): 1 µg/mL (≈ 2.92 µM); minimum inhibitory concentration (MIC) (T. rubrum; isolate 07-2055, 24 hours): 1 µg/mL (≈ 2.92 µM); minimum inhibitory concentration (MIC) (T. rubrum; isolate 07-2055, 48 hours): 1 µg/mL (≈ 2.92 µM); activity against the cell line U-87 (cell line U-87): most potent on an equimolar basis
